Values quoted from earlier work, collected in US9938200B2, “Methods for improving bud break” (priority 2010, dated 2018).

System: vines
Details: use over time

Which “lowering of the fruitability of vines” value does the source give for `N#CN` [hydrogen cyanamide] here?
The value was 20-30 % per year.
